# Data reported in US20190086391A1, “METHOD AND SYSTEM FOR CONTINUOUS BIOSENSING” (Yissum Research Development Company of the Hebrew …, priority 2016, published 2019).
# Several values for one entry are separate records, joined by “and”; a condition that tells them apart may be missing. Identical values can stand only once. Like-named read-outs stand apart in the source and are kept apart here.
# How the values were obtained:
# [1] = Real-time oxygen uptake in perfused microwell bioreactor; assay type: cell-based, human; conditions: human
# Method: (§1) PDMS microwell inserts were sterilized with 70% EtOH and 30 min exposure to UV light prior to cell seeding. Cells were trypsinized, counted and centrifuged at 300×g for 5 min at 4° C. The pellet was then mixed with […] CPOx-50-RuP oxygen-sensing beads (Colibri Photonics, Germany) and resuspended in 100 μl of ice-cold solution of collagen type I (BD Biosciences, USA) for a final seeding density of 4×10^6 cells/ml. The PDMS microwell insert was placed on ice and coated with ice-cold collagen solution for 5 min to remove air bubbles. Then 100 μl of collagen type I suspension containing cells and oxygen-sensing beads was layered on top the wells and incubated for 10 min on ice. The low temperature prevented premature collagen polymerization and the induction of cellular stress response pathways. Afterwards, excess cell and microbead suspension was gently wiped off the microwell insert using a sterile glass coverslip leading to a concentration of 100,000 cells and 20 oxygen-sensing beads per well. Variance in cell density between individual wells and between bioreactors was less than 10% measured by DNA content. The inoculated microwell insert was then incubated for 5 min at 37° C. to polymerize the collagen. Following polymerization, the insert was immersed in 5 ml of cell culture medium and incubated for 20 min at 37° C. prior to being sealed in the bioreactor housing. Bioreactors were then placed in a climate control chamber (Evotec, Germany) on an IX81 fluorescence microscope (Olympus, Japan). Bioreactors were continuously perfused with cell culture medium noted above supplemented with 10 mM HEPES and 1% DMSO at a flow rate of 2 μl/min. The automated and motorized microscope stage was equipped with a holder for three microreactors, allowing three experiments to run simultaneously.
# (§2) Troglitazone (T2573), and rotenone (R8875) were purchased from Sigma-Aldrich (Schnelldorf, Germany) and diluted from H2O or DMSO stock concentration 1:1000 into HepG2/C3A culture medium. Exposure onset was calculated to within ±1 min based on volumetric flow rate, considering the length of the tubing and bioreactor volume.
# (§3) Real-time oxygen measurements were performed optically using lifetime-based luminescencequenching as previously described (11). […] Excited by a sinusoidal amplitude-modulated 532 nm LED source, the microbeads emit a sinusoidal amplitudemodulated light at 605 nm that is shifted in phase due to oxygen quenching (FIG. 2D). To overcome the superposition of in-phase background fluorescence that alters the phase of the detected signal, a 53.5 kHz and 31.3 kHz two-frequency phase modulation was used. This allowed screening out background interference (26-28). Measurements were carried out by averaging 5 consecutive 3 second exposures, followed by 17 seconds intervals, for a total of 100 seconds. Measurements were taken every 15 minutes for as long as 28 days with no phototoxicity, signal drift, or relevant loss of signal intensity. The apparatus consists of the OPAL package (Colibri Photonics, Germany) that is comprised of a control module, 532 nm LED, and a photomultiplier (PMT) detector mounted on the ocular of an […] Olympus microscope (Olympus, Japan). A filter cube with 531/40 (Ex), 607/70 (Em) was inserted in the optical light path during measurements.
# HepG2/C3A cells [2] = assay: as above; assay type: cell-based, human
# Method: as §1, §2, §3
# HepG2/C3A cells [3] = assay: Seahorse Mitochondrial Stress Test (OCR, ECAR), static culture; assay type: cell-based, human; conditions: 50 μM; for decrease in maximal mitochondrial capacity: after uncoupler injection
# Method: HepG2/C3A cells were plated in gelatin-coated SeaHorse XFp cell culture miniplates (Seahorse Bioscience, USA) and cultured for 24 hours. Subsequently, cultures were treated with medium containing 50 μM troglitazone for 6 hours, 50 μM rotenone for 3 hours, or vehicle control prior to initiation of assay. Mitochondrial Stress Test assay was conducted per manufacturer instructions (29). Briefly, cells were incubated in unbuffered XF Base Medium supplemented with 2 mM glutamine, 1 mM sodium pyruvate, and 10 mM glucose (pH 7.4) for 1 hour at 37° C. in a non-CO2 incubator. Basal oxygen consumption rate (OCR) was measured for 30 min, followed by injection of 1 μM oligomycin, a mitochondrial […] inhibitor that completely blocks oxidative phosphorylation. The decrease in OCR due to oligomycin treatment is defined as oxidative phosphorylation rate. 1 μM carbonyl cyanide-4 (trifluoromethoxy) phenylhydrazone (FCCP), an uncoupling agent, is added at 60 min to measure maximal mitochondrial activity followed by complete inhibition at 90 min using a mixture of 0.5 μM antimycin A and rotenone, mitochondrial Complex III and Complex I inhibitors. Basal extracellular acidification rates (ECAR) was measured for 30 min, in the presence of 10 mM glucose, followed by injection of 1 μM oligomycin. The increase in ECAR due to oligomycin treatment was defined as glycolytic capacity. Data are presented normalized to […] cells as determined by Hoechst DNA content assay.
# [4] = tested on: primary human hepatocytes; conditions: cited from earlier work
# HepG2/C3A organoids = assay: LIVE/DEAD cell viability staining; assay type: cell-based; conditions: 50 μM, 24 hours
# Method: Unless otherwise noted, cell viability was determined utilizing LIVE/DEAD Cytotoxicity kit (Molecular Probes, Eugene, Oreg.) according to manufacturer's instructions. In brief, cultures were incubated with 2 μM Calcein AM and 3 μM ethidium homodimer-1 for 25 minutes. Hydrolysis by functional intracellular esterases causes live cells to fluoresce green, while the punctured membranes of dead cells permit ethidium homodimer-1 to bind DNA and fluoresce red. Cellular viability was calculated by live to dead ratio and normalized to negative control.
# HepG2/C3A cells [5] = assay: CDFDA staining for cholestasis (CDF retention, MRP2); assay type: cell-based, human; conditions: 24 hours exposure to 200 μM; due to inhibition of MRP2
# Method: PMDS microwell inserts were removed from the bioreactor following 24 hours exposure to rotenone or troglitazone. Cholestasis was evaluated using 5(6)-carboxy-2′, 7′-dichlorofluorescein diacetate (CDFDA) cell permeable dye which is metabolized to fluorescent CDF and secreted to active bile canaliculi by active multidrug resistance-associated protein 2 (MRP2). Briefly, cells were incubated with 2 μg/mL of CDFDA and 1 μg/mL of Hoechst 33342 for 20 min, and washed with PBS. Number of bile canaliculi foci was normalized for number of Hoechst-labeled nuclei. Apoptosis was evaluated using DeadEnd™ fluorometric TUNEL system (Promega, USA) according to manufacturer directions. Briefly, cells were fixed in 4% paraformaldehyde, permeabilized and exposed to fluorescein-12-dUTP and terminal deoxynucleotidyl transferase (TdT), dyeing apoptotic nuclei green. The reaction was subsequently stopped and the cells counterstained for Hoechst. A percent apoptotic nucleus was calculated by dividing the number of TUNEL to Hoechst positive nuclei.
# [6] = surrogate of lactate production
smiles,measurement,setting,value
C=C(C)[C@H]1Cc2c(ccc3c2O[C@@H]2COc4cc(OC)c(OC)cc4[C@@H]2C3=O)O1 [rotenone],CC50 at 12 h,"[1]; after 12 hours, read-out: TC50 (dose dependence of oxygen uptake)",12.5 µM
same,"oxygen uptake, % of normal respiration","HepG2/C3A cells [2]; 1 μM, 12 hours exposure",35%
same,reduction of oxygen uptake,HepG2/C3A cells [2]; 50 μM,80%
same,"oxygen uptake, % of normal respiration","HepG2/C3A cells [2]; 50 μM, 12 hours exposure",27%
same,"oxygen uptake, % of normal respiration","HepG2/C3A cells [2]; 200 μM, 12 hours exposure",15%
same,time to onset of mitochondrial damage,HepG2/C3A cells [2]; 0.2 mM,≤ 6 min
same,time within which the majority of the effect on oxygen uptake occurred,"HepG2/C3A cells [2]; 1, 50, 200 μM",≤ 60 min
same,"time to onset of mitochondrial damage, in words",HepG2/C3A cells [2]; dose-dependent,in minutes rather than hours
same,decrease in (mitochondrial) basal metabolic rate,HepG2/C3A cells [3]; static culture,83% and 83±5%
same,decrease in oxidative phosphorylation,HepG2/C3A cells [3]; static culture,85±5% and 85±8%
same,glycolytic capacity change,HepG2/C3A cells [3]; static culture,relatively unchanged
same,decrease in maximal mitochondrial capacity,HepG2/C3A cells [3]; static culture,87%
same,decrease in extracellular acidification rate (ECAR),HepG2/C3A cells [3]; [6],21±12%
same,CC50,[4],2 µM
Cc1c(C)c2c(c(C)c1O)CCC(C)(COc1ccc(CC3SC(=O)NC3=O)cc1)O2 (centres unmarked) [troglitazone],cell death (Live/Dead),HepG2/C3A organoids,Less than 5%
same,cell viability compared with untreated control,HepG2/C3A organoids,not significantly different from untreated control
same,CC50 at 24 h,[1],285 µM
same,reduction of oxygen uptake,HepG2/C3A cells [2]; 50 μM,10%
same,"oxygen uptake, % of normal respiration","HepG2/C3A cells [2]; 350 μM, 24 hours exposure",32%
same,"oxygen uptake, % of normal respiration","HepG2/C3A cells [2]; 500 μM, 24 hours exposure",15%
same,"oxygen uptake, % of normal respiration","HepG2/C3A cells [2]; 2000 μM, 24 hours exposure",8%
same,increase in intracellular accumulation of bile acids / CDF staining (cholestasis),HepG2/C3A cells [5],4.5 fold and 4.5±0.6 fold
same,decrease in (mitochondrial) basal metabolic rate,HepG2/C3A cells [3]; static culture,20±6%
same,decrease in maximal mitochondrial capacity,HepG2/C3A cells [3]; static culture,22±9%
same,increase in extracellular acidification rate (ECAR),HepG2/C3A cells [3]; [6],43±43%
same,CC50,[4]; read-out: TC50 in primary hepatocytes,100 µM
